Measured values as given in patent publication US9688613B2 (Jiva Pharma, Inc., priority 2015, dated 2017).

Tested on: GABA-A receptors
Test: Displacement of [3H] muscimol from GABA-A receptors
Assay type: binding
Protocol: Muscimol is the principal psychoactive constituent of Amanita muscaria and related species of mushroom.
These tests were performed using the procedure described by Tomasz Plech et. al., Studies on anticonvulsant activity of 4-alkyl-1,2,4-triazole-3-thiones and their effect on GABAergic system; European J. of Medicinal Chem. 2014, 86, 690-699.

Structure (SMILES)	% of [3H]-MUSCIMOL inhibition (LOG OF MOLAR CONC. −4)	% of [3H]-MUSCIMOL inhibition (LOG OF MOLAR CONC. −5)
CC/C=C\C/C=C\C/C=C\C/C=C\C/C=C\C/C=C\CCC(CN)CC(=O)O (centres unmarked) [Example 1, 3-Aminomethyl-tetracosa-6,9,12,15,18,21-hexaenoic Acid]	10%	0%
CC/C=C\C/C=C\C/C=C\C/C=C\C/C=C\CCCC(CN)CC(=O)O (centres unmarked) [Example 2, 3-Aminomethyl-docosa-7,10,13,16,19-pentaenoic Acid]	15%	10%
CC/C=C\C/C=C\C/C=C\CCCCCCCC(CN)CC(=O)O (centres unmarked) [Example 3, 3-Aminomethyl-eicosa-11,14,17-trienoic Acid]	8%	0%
CC(C)C[C@H](CN)CC(=O)O [Pregabalin, S-isobutylgaba, reference compound]	12%	0%
